Test results as given in patent US8314068B2, “P2X7 inhibition of epithelial cancers and papillomas” (University Hospitals of Cleveland, priority 2009, dated 2012).

Assays:
[1] = biological solutions, range of temperatures and pH; cited from earlier work
[2] = target: T1, human full-length P2X7 receptor (N-Myc-hP2X7-MDCK cells) (Homo sapiens, UniProt Q99572); assay: Apoptosis and P2X7 expression in N-Myc-hP2X7-MDCK cells; assay type: cell-based; settings: BzATP 100 μM, 8 hrs
T1 construct: MDCK cells heterologously expressing the human full-length P2X7 receptor tagged with N-Myc at the N-terminus; expressed in transfected cells; host or cells: MDCK (strain II) cells expressing tetracycline-regulated repressor
T1 sequence (Q99572 1-595): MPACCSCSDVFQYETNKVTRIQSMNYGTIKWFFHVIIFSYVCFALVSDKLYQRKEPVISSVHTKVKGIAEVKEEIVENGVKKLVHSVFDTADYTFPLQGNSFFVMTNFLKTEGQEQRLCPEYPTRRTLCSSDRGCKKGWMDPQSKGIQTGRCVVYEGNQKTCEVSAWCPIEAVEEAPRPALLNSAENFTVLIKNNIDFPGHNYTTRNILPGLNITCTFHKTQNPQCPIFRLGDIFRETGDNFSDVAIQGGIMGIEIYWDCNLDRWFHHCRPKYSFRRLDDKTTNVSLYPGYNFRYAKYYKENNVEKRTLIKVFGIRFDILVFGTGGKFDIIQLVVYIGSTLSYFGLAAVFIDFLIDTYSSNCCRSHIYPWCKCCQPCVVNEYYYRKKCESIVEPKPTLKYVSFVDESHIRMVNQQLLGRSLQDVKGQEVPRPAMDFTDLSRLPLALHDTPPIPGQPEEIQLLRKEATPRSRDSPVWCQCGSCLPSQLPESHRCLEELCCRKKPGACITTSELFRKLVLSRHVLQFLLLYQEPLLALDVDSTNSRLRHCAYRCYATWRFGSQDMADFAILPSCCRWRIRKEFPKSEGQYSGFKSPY

[3] = tested on: mouse wild-type keratinocytes; assay: Cytosolic calcium (Fluo-4) in mouse wild-type keratinocytes; assay type: cell-based
Experimental: FIG. 17A: Time course of changes in cytosolic calcium (ΔCa^2+i), in medium containing 1.2 mM Ca^2+ (upper trace) or 1.2 mM Ca2+ plus 1.2 mM EGTA (lower trace).
(§1) FIG. 17C: Dose response profile comparison between ΔCa^2+i and Eth-Br influx. Cells were treated with each BzATP concentration for […]. Levels of ΔCa^2+i (empty circles) were determined 2 min after adding BzATP; changes in Eth-Br fluorescence (filled circles) were determined 5 min after adding BzATP. Values=means±SD. Experiments were repeated 3 times. AU=arbitrary units.
(§2) Changes in Ca^2+i in cultured cells were determined in terms of changes in intracellular Fluo-4 fluorescence using dynamic confocal laser scanning microscopy. Cultured mouse keratinocytes were loaded with 5 μM Fluo-4/AM, and imaged with a Zeiss LSM 510 inverted real-time confocal microscope. Images were collected at 488 nm/505 nm (exc/emi) at intervals of 10 to 15 seconds after treatment with 100 μM BzATP, added to the perfusate. For ethidium bromide influx experiments, glass-bottomed dishes cultured with mouse keratinocytes were placed in the microscope. Images (collected at 488 nm/505 nm [exc/emi]) were taken before, and at intervals of 30 seconds after adding 5 μM ethidium bromide to the perfusate as described. Average fluorescence intensity was quantified from collated images using MetaVue software (Fryer Company Inc., Huntley, Ill.) by subtracting the basal intensity value.

P2X7 receptor = settings: cited from earlier work
HeLa cells = assay: Apoptosis in HeLa cells; assay type: cell-based, human
[4] = tested on: cancer ectocervical, endocervical, endometrial cells and cancer keratinocytes; settings: fold lesser apoptosis after BzATP; cited from earlier work
P2X7 pores = assay: Ethidium bromide influx (P2X7 pore formation) in mouse wild-type keratinocytes; assay type: cell-based
Experimental: FIG. 17B: Time course of influx of ethidium bromide (Eth-Br).
as §1, §2

hEVEC cells = assay: Apoptosis in hEVEC cells; assay type: cell-based, human
[5] = tested on: P2X7−/−Pf and P2X7−/−GSK keratinocytes; assay: Apoptosis in keratinocytes of P2X7-receptor-deficient mice; assay type: cell-based, mouse; settings: 100 μM BzATP
Experimental: FIG. 16C: BzATP time-response effect in cultured mouse normal keratinocytes (wild-type, C57B1; filled triangles), or in keratinocytes obtained from C57B1 background P2X7-deficient mice (P2X7^−/−Pfizer; empty circles; or P2X7^−/−GSK; filled circles). Values are means (±SD) of 3 experiments for each condition. Changes in apoptosis were determined using cell-death detection ELISA.
Apoptosis of cultured mouse keratinocytes was quantified in terms of percent solubilized DNA, or by using the commercial cell-death detection ELISA kit (Roche Applied Science, Nutley, N.J.). Wang et al., “P2X7-receptor mediated apoptosis of human cervical epithelial cells” Am J Physiol 2004, 287:C1349-C1358; and Feng et al., “A truncated P2X7 receptor variant (P2X7-j) endogenously expressed in cervical cancer cells antagonizes the full-length P2X7 receptor through hetero-oligomerization” J Biol Chem 2006, 281:17228-17237, respectively.
The experiments utilized primary cultures of epidermal keratinocytes generated from 6-8 weeks old wild-type C57B1 mice (Charles River, Wilmington, Mass.); from P2X7^−/−Pfizer mice constructed by deletion of amino acids 506-532 of the C-terminus (Solle et al., “Altered cytokine production in mice lacking P2X(7) receptors” J Biol Chem 2001, 276:125-32), or from P2X7^−/−GSK mice, which have a lacZ gene inserted at the beginning of exon 1, resulting knockout of the receptor. […]

SMILES: Nc1ncnc2c1ncn2[C@@H]1O[C@H](COP(=O)(O)OP(=O)(O)OP(=O)(O)O)[C@@H](OC(=O)c2ccc(C(=O)c3ccccc3)cc2)[C@H]1O [BzATP, 3′-O-(4-benzoylbenzoyl)adenosine triphosphate]
- stability [1]: relatively stable compound in biological solutions and across a broad range of temperatures and pH
- augmentation of apoptosis [2]: 2.5 fold
- concentration of pre-maximal response, cytosolic calcium [3]: 100 to 250 µM
- threshold concentration, cytosolic calcium [3]: 50 to 100 nM
- change in cytosolic calcium ([3]; 100 μM BzATP, 1.2 mM Ca^2+): acute increase in cytosolic calcium
- duration of increase in cytosolic calcium ([3]; 100 μM BzATP, 1.2 mM Ca^2+): at least 6 minutes
- EC50 (P2X7 receptor): 35 µM
- potency at the P2X7 receptor relative to ATP (P2X7 receptor; greater potency than ATP): 5-10 fold
- effect of BzATP on apoptosis (HeLa cells): no significant effect
- apoptosis in cancer cells relative to the respective normal cells [4]: 2-5 fold
- concentration of pre-maximal response, ethidium bromide influx (P2X7 pores): 100 to 250 µM
- onset of pore formation and augmented calcium influx after adding BzATP (P2X7 pores): 30 to 60 s
- threshold concentration, ethidium bromide influx (P2X7 pores): 50 to 100 nM
- influx of ethidium bromide (P2X7 pores; 100 μM BzATP): acute increase in the influx of ethidium bromide
- increase of apoptosis by BzATP (hEVEC cells): 2.5 fold
- induction of apoptosis [5]: failed to induce apoptosis
